Experimental data as given in patent publication US20050197350A1, “Novel quinoline, tetrahydroquinazoline, and pyrimidine derivatives and methods of treatment related to the use thereof” (TAISHO PHARMACEUTICAL CO., LTD., priority 2003, published 2005).

What follows are molecules tested on MCH receptors (assay: MCH receptor activity class (method not given)). Settings: MCH receptor activity class 1-3 (percent of control at 10^-7 M or IC50).

| SMILES | class |
| --- | --- |
| CN(C)c1cc(N[C@H]2CC[C@@H](NC(=S)NC3CC4CCC3C4)CC2)nc2ccccc12 (relative stereo) [compound 2310] | 3 (Class 3 The value of percent of control at 10^−7 M was more than 60% or the value of IC50 was more than 200 nM.) |
| CN(C)c1ccnc(N[C@H]2CC[C@@H](NC(=S)NC3CC4CCC3C4)CC2)n1 (relative stereo) [compound 2355] | 3 (Class 3 The value of percent of control at 10^−7 M was more than 60% or the value of IC50 was more than 200 nM.) |
| CCOC(=O)[C@H](CC(C)C)NC(=O)NC[C@H]1CC[C@@H](Nc2cc(N(C)C)c3ccccc3n2)CC1 (relative stereo) [compound 2363] | 3 (Class 3 The value of percent of control at 10^−7 M was more than 60% or the value of IC50 was more than 200 nM.) |
| CCOC(=O)[C@H](CC(C)C)NC(=O)NC[C@H]1CC[C@@H](Nc2nccc(N(C)C)n2)CC1 (relative stereo) [compound 2409] | 3 (Class 3 The value of percent of control at 10^−7 M was more than 60% or the value of IC50 was more than 200 nM.) |
| CCOC(=O)[C@H](CC(C)C)NC(=O)NC[C@H]1CC[C@@H](Nc2nc3c(c(N(C)C)n2)CCCC3)CC1 (relative stereo) [compound 2455] | 2 (Class 2: The value of percent of control at 10^−7 M was from 40% to 60% or the value of IC′50 was from 50 nM to 200 nM.) |

Same assay, conditions: MCH receptor; class by percent of control at 10^-7 M or IC50

| SMILES | class |
| --- | --- |
| CN(C)c1nc(N[C@H]2CC[C@@H](NC(=S)NCC3CCCO3)CC2)nc2c1CCCC2 (relative stereo) [compound 1958] | 3 (Class 3 The value of percent of control at 10^−7 M was more than 60% or the value of IC50 was more than 200 nM.) |
| CN(C)c1nc(N[C@H]2CC[C@@H](NC(=S)NC34CC5CC(CC(C5)C3)C4)CC2)nc2c1CCCC2 (relative stereo) [compound 1962] | 3 (Class 3 The value of percent of control at 10^−7 M was more than 60% or the value of IC50 was more than 200 nM.) |
| CC(NC(=S)N[C@H]1CC[C@@H](Nc2nc3c(c(N(C)C)n2)CCCC3)CC1)c1ccc(F)cc1 (relative stereo) [compound 2014] | 3 (Class 3 The value of percent of control at 10^−7 M was more than 60% or the value of IC50 was more than 200 nM.) |
| CC(NC(=S)N[C@H]1CC[C@@H](Nc2nc3c(c(N(C)C)n2)CCCC3)CC1)c1ccccc1 (relative stereo) [compound 2024] | 3 (Class 3 The value of percent of control at 10^−7 M was more than 60% or the value of IC50 was more than 200 nM.) |
| CN(C)c1nc(N[C@H]2CC[C@@H](NC(=S)NC3CC4C=CC3C4)CC2)nc2c1CCCC2 (relative stereo) [compound 2067] | 3 (Class 3 The value of percent of control at 10^−7 M was more than 60% or the value of IC50 was more than 200 nM.) |

Same assay, conditions: activity class 1-3: percent of control at 10^-7 M or IC50

| SMILES | class |
| --- | --- |
| COC(=O)[C@H](CCSC)NC(=O)N[C@H]1CC[C@@H](Nc2nc3c(c(N(C)C)n2)CCCC3)CC1 (relative stereo) [compound 1699] | 3 (Class 3 The value of percent of control at 10^−7 M was more than 60% or the value of IC50 was more than 200 nM.) |
| CC(NC(=O)N[C@H]1CC[C@@H](Nc2nc3c(c(N(C)C)n2)CCCC3)CC1)c1cccc2ccccc12 (relative stereo) [compound 1704] | 1 (Class 1: The value of percent of control at 10^−7 M was less than 40% or the value of IC50 was less than 50 nM.) |
| COC(=O)[C@H](Cc1ccccc1)NC(=O)N[C@H]1CC[C@@H](Nc2nc3c(c(N(C)C)n2)CCCC3)CC1 (relative stereo) [compound 1705] | 3 (Class 3 The value of percent of control at 10^−7 M was more than 60% or the value of IC50 was more than 200 nM.) |
| CC(NC(=O)N[C@H]1CC[C@@H](Nc2nc3c(c(N(C)C)n2)CCCC3)CC1)c1ccccc1 (relative stereo) [compound 1706] | 3 (Class 3 The value of percent of control at 10^−7 M was more than 60% or the value of IC50 was more than 200 nM.) |

Same assay, conditions: class by percent of control at 10^-7 M or IC50

| SMILES | class |
| --- | --- |
| CC(NC(=O)N[C@H]1CC[C@@H](Nc2nc3c(c(N(C)C)n2)CCCC3)CC1)c1ccc(Br)cc1 (relative stereo) [compound 1728, N-[1-(4-bromophenyl)ethyl]-N′-(cis-4-{[4-(dimethylamino)-5,6,7,8-tetrahydroquinazolin-2-yl]amino}cyclohexyl)urea] | 2 (Class 2: The value of percent of control at 10^−7 M was from 40% to 60% or the value of IC′50 was from 50 nM to 200 nM.) |
| CCOC(=O)[C@H](Cc1ccccc1)NC(=O)N[C@H]1CC[C@@H](Nc2nc3c(c(N(C)C)n2)CCCC3)CC1 (relative stereo) [compound 1730] | 3 (Class 3 The value of percent of control at 10^−7 M was more than 60% or the value of IC50 was more than 200 nM.) |
| CN(C)c1nc(N[C@H]2CC[C@@H](NC(=O)NC34CC5CC(CC(C5)C3)C4)CC2)nc2c1CCCC2 (relative stereo) [compound 1807] | 3 (Class 3 The value of percent of control at 10^−7 M was more than 60% or the value of IC50 was more than 200 nM.) |
| CCOC(=O)[C@H](CC(C)C)NC(=O)N[C@H]1CC[C@@H](Nc2cc(N(C)C)c3ccccc3n2)CC1 (relative stereo) [compound 2093] | 3 (Class 3 The value of percent of control at 10^−7 M was more than 60% or the value of IC50 was more than 200 nM.) |
| COC(=O)[C@H](CCSC)NC(=O)N[C@H]1CC[C@@H](Nc2cc(N(C)C)c3ccccc3n2)CC1 (relative stereo) [compound 2129] | 3 (Class 3 The value of percent of control at 10^−7 M was more than 60% or the value of IC50 was more than 200 nM.) |
| CC(NC(=O)N[C@H]1CC[C@@H](Nc2cc(N(C)C)c3ccccc3n2)CC1)c1cccc2ccccc12 (relative stereo) [compound 2134] | 1 (Class 1: The value of percent of control at 10^−7 M was less than 40% or the value of IC50 was less than 50 nM.) |
| COC(=O)[C@H](Cc1ccccc1)NC(=O)N[C@H]1CC[C@@H](Nc2cc(N(C)C)c3ccccc3n2)CC1 (relative stereo) [compound 2135] | 2 (Class 2: The value of percent of control at 10^−7 M was from 40% to 60% or the value of IC′50 was from 50 nM to 200 nM.) |
| CC(NC(=O)N[C@H]1CC[C@@H](Nc2cc(N(C)C)c3ccccc3n2)CC1)c1ccccc1 (relative stereo) [compound 2136] | 3 (Class 3 The value of percent of control at 10^−7 M was more than 60% or the value of IC50 was more than 200 nM.) |
| CC(NC(=O)N[C@H]1CC[C@@H](Nc2cc(N(C)C)c3ccccc3n2)CC1)c1ccc(Br)cc1 (relative stereo) [compound 2158] | 3 (Class 3 The value of percent of control at 10^−7 M was more than 60% or the value of IC50 was more than 200 nM.) |
| CCOC(=O)[C@H](Cc1ccccc1)NC(=O)N[C@H]1CC[C@@H](Nc2cc(N(C)C)c3ccccc3n2)CC1 (relative stereo) [compound 2160] | 3 (Class 3 The value of percent of control at 10^−7 M was more than 60% or the value of IC50 was more than 200 nM.) |
| CCOC(=O)[C@H](CC(C)C)NC(=O)N[C@H]1CC[C@@H](Nc2nccc(N(C)C)n2)CC1 (relative stereo) [compound 2183] | 3 (Class 3 The value of percent of control at 10^−7 M was more than 60% or the value of IC50 was more than 200 nM.) |
| COC(=O)[C@H](CCSC)NC(=O)N[C@H]1CC[C@@H](Nc2nccc(N(C)C)n2)CC1 (relative stereo) [compound 2219] | 3 (Class 3 The value of percent of control at 10^−7 M was more than 60% or the value of IC50 was more than 200 nM.) |
| CC(NC(=O)N[C@H]1CC[C@@H](Nc2nccc(N(C)C)n2)CC1)c1cccc2ccccc12 (relative stereo) [compound 2224, N-(cis-4-{[4-(dimethylamino)pyrimidin-2-yl]amino}cyclohexyl)-N′-[1-(1-naphthyl)ethyl]urea] | 1 (Class 1: The value of percent of control at 10^−7 M was less than 40% or the value of IC50 was less than 50 nM.) |
| COC(=O)[C@H](Cc1ccccc1)NC(=O)N[C@H]1CC[C@@H](Nc2nccc(N(C)C)n2)CC1 (relative stereo) [compound 2225] | 3 (Class 3 The value of percent of control at 10^−7 M was more than 60% or the value of IC50 was more than 200 nM.) |
| CC(NC(=O)N[C@H]1CC[C@@H](Nc2nccc(N(C)C)n2)CC1)c1ccccc1 (relative stereo) [compound 2226] | 3 (Class 3 The value of percent of control at 10^−7 M was more than 60% or the value of IC50 was more than 200 nM.) |
| CC(NC(=O)N[C@H]1CC[C@@H](Nc2nccc(N(C)C)n2)CC1)c1ccc(Br)cc1 (relative stereo) [compound 2248] | 3 (Class 3 The value of percent of control at 10^−7 M was more than 60% or the value of IC50 was more than 200 nM.) |
| CCOC(=O)[C@H](Cc1ccccc1)NC(=O)N[C@H]1CC[C@@H](Nc2nccc(N(C)C)n2)CC1 (relative stereo) [compound 2250] | 3 (Class 3 The value of percent of control at 10^−7 M was more than 60% or the value of IC50 was more than 200 nM.) |

Same assay, conditions: class by percent of control at 10^−7 M or IC50

| SMILES | class |
| --- | --- |
| Cc1cnc(N[C@H]2CC[C@@H](C(=O)NC(C)c3ccc(Br)cc3)CC2)nc1N(C)C (relative stereo) [compound 2779] | 1 (Class 1: The value of percent of control at 10^−7 M was less than 40% or the value of IC50 was less than 50 nM.) |
| Cc1cnc(N[C@H]2CC[C@@H](C(=O)N[C@@H](C)c3cccc4ccccc34)CC2)nc1N(C)C (relative stereo) [compound 2783, cis-4-{[4-(dimethylamino)-5-methylpyrimidin-2-yl]ainino}-N-[(1S)-1-(1-naphthyl)ethyl]cyclohexanecarboxamide] | 1 (Class 1: The value of percent of control at 10^−7 M was less than 40% or the value of IC50 was less than 50 nM.) |
| Cc1nc(N[C@H]2CC[C@@H](NC(=O)C(O)c3cc(F)cc(F)c3)CC2)nc(N(C)C)c1C (relative stereo) [compound 2829, 2-(3,5-difluorophenyl)-N-(cis-4-{[4-(dimethylamino)-5,6-dimethylpyrimidin-2-yl]amino}cyclohexyl)-2-hydroxyacetamide] | 2 (Class 2: The value of percent of control at 10^−7 M was from 40% to 60% or the value of IC′50 was from 50 nM to 200 nM.) |
